Results from ChEMBL document CHEMBL1125766, “Synthesis and antiviral activity of certain guanosine analogues in the thiazolo[4,5-d]pyrimidine ring system” (1991).
Several values for one entry are separate records, joined by “and”; a condition that tells them apart may be missing. Identical values can stand only once.

Assays:
Assay type in all cases: functional
Mus musculus [1] = test: Compound was tested for mean survival time through 21 days after intraperitoneal administration of 150 mg/kg, 24 hr prior to virus inoculation ( forest virus) in mice
Mus musculus [2] = test: Compound was tested for mean survival time through 21 days after intravenous administration of 150 mg/kg, 24 hr prior to virus inoculation ( forest virus) in mice
Mus musculus [3] = test: Compound was tested for mean survival time through 21 days after oral administration of 150 mg/kg, 24 hr prior to virus inoculation ( forest virus) in mice
Mus musculus [4] = test: Compound was tested for mean survival time through 21 days after subcutaneous administration of 150 mg/kg, 24 hr prior to virus inoculation ( forest virus) in mice
Mus musculus [5] = test: Compound was tested for its activity against forest virus infection in mice, activity was determined by measuring the number of survived mice after 150 mg/kg oral administration.
Mus musculus [6] = test: Compound was tested for its activity against forest virus infection in mice, activity was determined by measuring the number of survived mice after 150 mg/kg subcutaneous administration.
Mus musculus [7] = test: Compound was tested for its activity against intraperitoneal administration.
Mus musculus [8] = test: Compound was tested for its activity against forest virus infection in mice, activity was determined by measuring the number of survived mice after 150 mg/kg intravenous administration.
Mus musculus [9] = test: Compound was tested for mean survival time through 21 days after administration of 25 mg/kg, 24 and 18 hr prior to virus inoculation ( forest virus) in mice
Mus musculus [10] = test: Compound was tested for its activity against forest virus infection in mice, activity was determined by measuring the number of survived mice after 25 mg/kg administration
Mus musculus [11] = test: Compound was tested for its activity against forest virus infection in mice, activity was determined by measuring the number of survived mice after 50 mg/kg administration
Mus musculus [12] = test: Compound was tested for its activity against forest virus infection in mice, activity was determined by measuring the number of survived mice after 100 mg/kg administration
Mus musculus [13] = test: Compound was tested for mean survival time through 21 days after administration of 100 mg/kg, 24 and 18 hr prior to virus inoculation ( forest virus) in mice
Mus musculus [14] = test: Compound was tested for mean survival time through 21 days after administration of 200 mg/kg, 24 and 18 hr prior to virus inoculation ( forest virus) in mice
Mus musculus [15] = test: Compound was tested for its activity against forest virus infection in mice, activity was determined by measuring the number of survived mice after 200 mg/kg administration.
Mus musculus [16] = test: Compound was tested for its activity against forest virus infection in mice, activity was determined by measuring the number of survived mice after 100 mg/kg administration.

SMILES	Mean survival time (Mus musculus [1])	Mean survival time (Mus musculus [2])	Mean survival time (Mus musculus [3])	Mean survival time (Mus musculus [4])	Survivors (Mus musculus [5])	Survivors (Mus musculus [6])	Survivors (Mus musculus [7])	Survivors (Mus musculus [8])	Mean survival time (Mus musculus [9])	Survivors (Mus musculus [10])	Survivors (Mus musculus [11])	Survivors (Mus musculus [12])	Mean survival time (Mus musculus [13])	Mean survival time (Mus musculus [14])	Survivors (Mus musculus [15])	Survivors (Mus musculus [16])	Mean survival time (Mus musculus [13]; 100 mg/kg)
CC(=O)OC[C@H]1O[C@@H](n2c(=O)sc3c(O)nc(N)nc32)[C@H](OC(C)=O)[C@@H]1OC(C)=O	8 days	7.9 days	6.6 days	7 days	17%	82%	92%	42%	–	–	–	–	–	–	–	–	–
Nc1nc(O)c2sc(=O)n([C@@H]3O[C@@H]4COP(=O)(O)O[C@H]4[C@H]3O)c2n1	–	–	–	–	–	–	–	–	7.1 days and 7.3 days	42%	17%	50%	7 days	–	–	–	–
Nc1nc(O)c2sc(=O)n(C(CO)OC(CO)CO)c2n1 (stereo not given)	–	–	–	–	–	–	–	–	–	–	–	–	7 days	7.8 days	0%	8%	–
C[C@H]1OC(n2c(=O)sc3c(O)nc(N)nc32)[C@H](O)[C@@H]1O (stereo not given in full)	–	–	–	–	–	–	–	–	–	–	–	–	8 days	8.4 days	0%	8%	–
Nc1nc(=O)c2sc(=O)n([C@@H]3O[C@H](CO)[C@@H](O)[C@H]3O)c2[nH]1 [ISATORIBINE]	7 days	8 days	7.1 days	>21 days	25%	100%	91%	73%	8.8 days and 7.2 days	25%	25%	50%	–	>21 days	100%	92%	6.5 days and 10 days
Nc1nc(O)c2sc(=O)n(C3O[C@H](COP(=O)(O)O)[C@@H](O)[C@H]3O)c2n1 (stereo not given in full)	–	–	–	–	–	–	–	–	8.1 days and 7.1 days	25%	50%	67%	6.5 days	–	–	–	–
Nc1nc(O)c2sc(=O)n([C@H]3C[C@H](O)[C@@H](CO)O3)c2n1	–	–	–	–	–	–	–	–	–	–	–	–	6.8 days	7 days	83%	50%	–
Nc1nc(O)c2sc(=O)n(C3O[C@H](COS(N)(=O)=O)[C@@H](O)[C@H]3O)c2n1 (stereo not given in full)	–	–	–	–	–	–	–	–	–	–	–	–	8 days	8.2 days	8%	17%	–
